Data: patent US20170253607A1, “LONG-ACTING HIV PROTEASE INHIBITOR” (Shionogi & Co., Ltd., priority 2014, published 2017)

biological target: HIV-1 PR (Human immunodeficiency virus type 1 group M subtype B, UniProt P04585); test: HIV-protease inhibitory activity assay (FRET peptide substrate); type: biochemical; details: Test Example 1
Method: Test Example 1: HIV-Protease Inhibitory Activity Assay
The HIV-1 PR assay was performed by using a FRET (Fluorescence Resonance Energy Transfer) peptide substrate (AnaSpec, Inc., Fremont, Calif.). Initially in the intact FRET peptide, the fluorescence of HiLyte Fluor 488 is quenched by QXL 520. Upon substrate cleavage by PR, the fluorescence is recovered and can be monitored. Test compounds diluted in DMSO was plated to the wells of 384-well plate. Then, mixed with assay buffer (0.1 mol/L NaAc containing 0.5 mol/L NaCl, 1 mmol/L EDTA, 1 mmol/L DTT, and 0.05% Tween 20, pH 4.8) in the presence or absence of HIV-1 PR (0.83 ng), and let it stand for 5 minutes at room temperature. Background fluorescence intensity was measured and let it stand for another 15 minutes at room temperature. The enzyme reaction was started by adding substrate diluted in assay buffer at final concentration of 2 μmol/L, and let it stand for 60 minutes at room temperature. After 60 minutes, the fluorescence intensity was measured. Fluorescence intensity was measured with excitation and emission wavelengths of 485 nm and 535 nm, respectively.
IC50 values were determined using non-linear regression four-parameter logistic equation, y=A+((B−A)/(1+((C/x)̂D))) where A=minimum inhibition, B=maximum inhibition, C=log IC50, D=slope factor, x=concentration of compound and y=% inhibition.

SMILES | IC50
COc1ccc(S(=O)(=O)N(CC(C)C)CC(O)C(Cc2ccc(OCc3ccc(-c4ccc(F)cc4F)c(C(=O)O)c3)cc2)NC(=O)OC2COC3(C)OCCC23)cc1 (centres unmarked) [Compound I-152] | 1.15 nM
COc1ccc(S(=O)(=O)N(CC(C)C)CC(O)C(Cc2ccc(OCc3cccc(-c4ccc(F)cc4F)c3C(=O)O)cc2)NC(=O)OC2COC3(C)OCCC23)cc1 (centres unmarked) [Compound I-153] | 1.08 nM
CC(C)CN(CC(O)C(Cc1ccc(OC(C(=O)O)c2ccc(-c3ccc(F)cc3F)cc2)cc1)NC(=O)OC1COC2(C)OCCC12)S(=O)(=O)c1ccc2ncsc2c1 (centres unmarked) [Compound I-154] | 1.87 nM
COc1ccc(S(=O)(=O)N(CC(C)C)CC(O)C(Cc2ccc(Oc3ccc(C(=O)O)c(-c4ccc(F)cc4F)c3)cc2)NC(=O)OC2COC3(C)OCCC23)cc1 (centres unmarked) [Compound I-155] | 1.37 nM
CC(C)CN(CC(O)C(Cc1ccc(OCc2ccc(C(=O)O)c(-c3ccc(F)cc3F)n2)cc1)NC(=O)OC1COC2(C)OCCC12)S(=O)(=O)c1ccc2ncsc2c1 (centres unmarked) [Compound I-156] | 1.3 nM
CC(C)CN(CC(O)C(Cc1ccc(OCc2cnc(C(=O)O)c(-c3ccc(F)cc3F)c2)cc1)NC(=O)OC1COC2(C)OCCC12)S(=O)(=O)c1ccc2ncsc2c1 (centres unmarked) [Compound I-157] | 1.22 nM
CC(C)CN(CC(O)C(Cc1ccc(OCc2ccccc2-c2ccccc2C(=O)N(C)C)cc1)NC(=O)OC1COC2(C)OCCC12)S(=O)(=O)c1ccc2ncsc2c1 (centres unmarked) [Compound I-160] | 0.96 nM
CC(C)CN(CC(O)C(Cc1ccc(OCc2ccc(-c3ccccc3)cc2C(=O)N(C)C)cc1)NC(=O)OC1COC2(C)OCCC12)S(=O)(=O)c1ccc2ncsc2c1 (centres unmarked) [Compound I-161] | 0.94 nM
CC(C)CN(CC(O)C(Cc1ccc(OCc2ccc3ccccc3c2C(N)=O)cc1)NC(=O)OC1COC2(C)OCCC12)S(=O)(=O)c1ccc2ncsc2c1 (centres unmarked) [Compound I-162] | 0.96 nM
CC(C)CN(CC(O)C(Cc1ccc(OCc2ccc3ccccc3c2C(=O)N(C)C)cc1)NC(=O)OC1COC2(C)OCCC12)S(=O)(=O)c1ccc2ncsc2c1 (centres unmarked) [Compound I-163] | 1.1 nM
CC1(C)CCc2sc(-c3ccc(CCCN(CC(O)C(Cc4ccccc4)NC(=O)OC4COC5(C)OCCC45)S(=O)(=O)c4ccc5ncsc5c4)cc3)c(C(=O)O)c2C1 (centres unmarked) [Compound I-164] | 2.07 nM
CC1(C)CCc2sc(-c3ccc(CN(CC(O)C(Cc4ccccc4)NC(=O)OC4COC5(C)OCCC45)S(=O)(=O)c4ccc5ncsc5c4)cc3)c(C(=O)O)c2C1 (centres unmarked) [Compound I-167] | 7.1 nM
COc1ccc(S(=O)(=O)N(CC(C)C)CC(O)C(Cc2ccc(OCCNC(=O)c3cccc(Cl)c3O)cc2)NC(=O)OC2COC3(C)OCCC23)cc1 (centres unmarked) [Compound I-169] | 0.88 nM
COc1ccc(S(=O)(=O)N(CC(C)C)CC(O)C(Cc2ccc(OCCNC(=O)c3cc(Cl)ccc3O)cc2)NC(=O)OC2COC3(C)OCCC23)cc1 (centres unmarked) [Compound I-170] | 0.91 nM
COc1ccc(S(=O)(=O)N(CC(C)C)CC(O)C(Cc2ccc(OCCNC(=O)c3cc(C)cc(C)c3O)cc2)NC(=O)OC2COC3(C)OCCC23)cc1 (centres unmarked) [Compound I-171] | 0.94 nM
COc1ccc(S(=O)(=O)N(CC(C)C)CC(O)C(Cc2ccc(OCCNC(=O)c3cc(-c4ccc(F)cc4F)ccc3O)cc2)NC(=O)OC2COC3(C)OCCC23)cc1 (centres unmarked) [Compound I-172] | 1.02 nM
CC(C)CN(CC(O)C(Cc1ccc(OCc2ccccc2-c2ccc3c(c2)C(=O)C(c2ccc(F)cc2)C3=O)cc1)NC(=O)OC1COC2(C)OCCC12)S(=O)(=O)c1ccc2c(c1)OCO2 (centres unmarked) [Compound I-174] | 2.08 nM
COc1ccc(S(=O)(=O)N(CC(C)C)CC(O)C(Cc2ccc(OCc3ccccc3-c3ccc4c(c3)C(=O)C(c3ccccc3C)C4=O)cc2)NC(=O)OC2COC3(C)OCCC23)cc1 (centres unmarked) [Compound I-176] | 1.01 nM
COc1ccc(S(=O)(=O)N(CC(C)C)CC(O)C(Cc2ccc(OCc3ccccc3-c3ccc4c(C(=O)O)csc4c3)cc2)NC(=O)OC2COC3(C)OCCC23)cc1 (centres unmarked) [Compound I-179] | 1.1 nM
COc1ccc(S(=O)(=O)N(CC(C)C)CC(O)C(Cc2ccc(OCc3ccccc3-c3ccc4[nH]c(=O)c(-c5ccc(Oc6ccccc6)cc5)c(O)c4c3)cc2)NC(=O)OC2COC3(C)OCCC23)cc1 (centres unmarked) [Compound I-180] | 2.71 nM
